According to patent US5705499A, “8-arylalkyl- and 8-arylheteroalkyl-5,11-dihydro-6H-dipyrido[3,2-B:2',3'-e][1]diazepines and their use in the treatment of HIV-1 infection” (Boehringer Ingelheim Pharmaceuticals, Inc., priority 1996, dated 1998):
Like-named read-outs stand apart in the source and are kept apart here.

Tests used:
RT (Y181C) = target: T1, RT (Y181C) (Human immunodeficiency virus type 1 group M subtype B, UniProt P04585, Y768C); assay type: biochemical; settings: Y181C mutant HIV-1 RT
T1 construct: Heterodimeric RT was eluted using a descending gradient; made in house; host or cells: E. coli
Excerpt: (§1) REVERSE TRANSCRIPT (RT) ASSAYS
(§2) Among the enzymes for which Human Immunodeficiency Virus (HIV-1) encodes is a reverse transcriptase (1), so-named because it transcribes a DNA copy from an RNA template. This activity can be quantitatively measured in a cell-free enzyme assay, which has been previously described (2), and is based upon the observation that reverse transcriptase is able to use a synthetic template [poly r(C) primed with oligo d(G)] to transcribe a radio-labelled, acid-precipitable DNA strand utilizing ^3 H-dGTP as a substrate. The assay described below utilizes the wild type (WT) enzyme, which is the predominant form of the enzyme observed in patients infected with HIV-1.
Purification of recombinant reverse transcriptase was performed using a combination of methods previously described (5). This procedure is summarized briefly as follows: Bacteria were pelleted E. Coli containing RT-1 wt or RT-1 (Y181 C) were suspended in 50 mM MES, pH 6.0 containing 10% glycerol, lysed in a french press, centrifuged, and the supernates discarded. […]
The 2.4× concentrated stock reaction mixture is aliquoted and stored at -20° C. […] The filters are then dried, placed into plastic bags with Betaplate scintillation cocktail (Pharmacia/LKB) and counted in the Betaplate counter (Pharmacia/LKB). […]

RT (WT) = RT (WT) (Human immunodeficiency virus type 1 group M subtype B, UniProt P04585); experiment: Reverse Transcriptase (RT) Assay, wild type; assay type: biochemical, HIV-1; set-up: Heterodimeric RT was eluted using a descending gradient; made in house; host or cells: E. coli (clone pKRT2, obtained from Yale University); settings: read-out: RT (WT) Assay % inh. (1 μM)
Excerpt: as §1, §2
The HIV-1 RT expression clone, pKRT2, was obtained from Yale University (3). An overnight culture, grown in 2×YT medium (37° C., 225 rpm) (4), supplemented with 100 μg/mL ampicillin for positive selection was used to inoculate the 2×YT medium. The culture is incubated (37° C., 225 rpm) until it reaches an OD600 of 0.6-0.9. At that time the repressor inhibitor IPTG (isopropyl β-D-thiogalactopyranoside) is added to 0.5 mM, and the mixture is incubated for 2 additional hours.
Purification of recombinant reverse transcriptase was performed using a combination of methods previously described (5). This procedure is summarized briefly as follows: Bacteria were pelleted E. Coli containing RT-1 wt or RT-1 (Y181 C) were suspended in 50 mM MES, pH 6.0 containing 10% glycerol, lysed in a french press, centrifuged, and the supernates discarded. Lysate pellets were extracted with buffer A (50 mM MES, pH 6.0, 100 mM KCl, 50 mM KPi, 10% glycerol, 0.02% hexyl β-glucoside), and re-centrifuged; nucleic acid in supernates was precipitated with 0.1% polyethylenimine. […] Bound RT was eluted with a gradient of 0 to 1.0M (NH4)2 SO4 in buffer B. Heparin-Sepharose fractions containing RT were concentrated (Amicon YM-30 membrane), combined with equal volumes of 2.0M (NH4)2 SO4 in buffer B and injected onto a 21.5×150 mm TSK Phenyl-5PW HIC HPLC column (Phenomenex). Heterodimeric RT was eluted using a descending gradient of 1.0M to 0M (NH4)2 SO4 in buffer B, concentrated, and stored at 4° C.
The 2.4× concentrated stock reaction mixture is aliquoted and stored at -20° C. […] This enzyme assay has been adapted to a 96 well microtiter plate system, and has been previously described (6). Tris buffer (50 mM, pH 7.8), vehicle (solvent diluted to match the compound dilution), or compounds in vehicle are dispensed into 96-well microtiter plates (10 μL/well; 3 wells/compound). The HIV-1 RT enzyme is thawed, diluted in 50 mM Tris pH 7.8 containing 0.05% Chaps to give 1.5 nM enzyme and 25 μL are dispensed per well. Ten μL of 0.5M EDTA are added to the first three wells of the microtiter plate. EDTA chelates the Mg^++ present and prevents reverse transcription. This group serves as background polymerization which is subtracted from all other groups. Twenty-five μl of the 2.4× reaction mixture are added to all wells and the assay is allowed to incubate at room temperature for 30 minutes. The assay is terminated by precipitating the DNA in each well with 60μL of sodium pyrophosphate (2% w/v) in 10% trichloracetic acid (TCA) (10% w/v). The microtiter plate is incubated for 15 minutes at 4° C. and the precipitate is harvested onto #30 glass fiber paper (Schleicher & Schuell) using a Tomtech 96-well harvester. The filters are then dried, placed into plastic bags with Betaplate scintillation cocktail (Pharmacia/LKB) and counted in the Betaplate counter (Pharmacia/LKB).
The calculation for percent inhibition is as follows: [formula]

[1] = tested on: HTLV-IIIB strain of HIV-1 (in C8166-45 cells); experiment: Syncytia (human T-cell culture) Assay; assay type: cell-based
Procedure: Formation of syncytia is a feature of in vitro cultures of CD4+ T-cells infected with HIV-1. In this assay (1), T-cells are treated with a putative replication inhibiting compound and then infected with HIV-1. After incubation, the culture is checked for the formation of syncytia. The absence or reduction in the number of syncytia is used as a measure of the test compound's ability to inhibit HIV replication.
The target cells, designated C8166-45, are a fusion of umbilical blood lymphocytes and T-cells from leukemia-lymphoma patients and are established at an initial density of 5×10^4 per 90 μl in RPMI 1640 (+10% fetal bovine serum) culture medium in 96 well flat bottom plates. A selected amount of test compound, dissolved in DMSO, is included. 50 TCID50 's (the dose that results in induced effect in 50% of test cultures) of the HTLV-IIIB strain of HIV-1 (3) are inoculated into each culture. Control cultures receive compound or virus only.
The cultures are incubated for 72 hours (4), at 37° C. with 5% carbon dioxide, and then visually examined for the frequency and distribution of virus-induced giant cell syncytia. The percent inhibition by the test compound is determined by comparison with control values.

C8166-45 cell line = experiment: MTT Assay (cytotoxicity); assay type: cell-based, human; settings: C8166-45 cells, five days
[2] = Human immunodeficiency virus 1, T-cell, C8166-45 cells, HTLV-IIIB strain, 72 hours, read-out: Syncytia Assay IC50

| IC50 [1, 2] [µM] | Compound | inhibition at 1 µM (RT (WT)) [%] | MTT Assay CC30 (C8166-45 cell line) [nM] | also measured |
| --- | --- | --- | --- | --- |
| – | 2-Chloro-5,11-dihydro-11-ethyl-8-[2-(3-methylsulfonamidophenyl)ethyl]-6H-dipyrido[3,2-b:2',3'-e][1,4]diazepin-6-one [Example 25] | – | – | RT (Y181C) Assay % inh. (1 μM) (RT (Y181C)): 70% |
| – | 5,11-Dihydro-11-ethyl-5-methyl-8-phenylethynyl-6H-dipyrido[3,2-b:2',3'-e][1,4]diazepin-6-one [Example 48] | – | – | RT (Y181C) Assay % inh. (1 μM) (RT (Y181C)): 17% |
| – | CCN1c2ncc(/C=C/c3ccncc3)cc2C(=O)N(C)c2cccnc21 [Example 1, 5,11-Dihydro-11-ethyl-5-methyl-8-[trans-2-(pyrid-4-yl)ethen-1-yl]-6H H-dipyridol[3,2-b:2',3'-e][1,4]diazepin-6-one] | 32 | – | – |
| – | CCN1c2ncc(CCc3ccncc3)cc2C(=O)N(C)c2ccc(C#N)nc21 [Example 4, 2-Cyano-5,11-dihydro-11-ethyl-8-[2-(4-pyridyl)ethyl]-5-methyl-6H-dipyrido-[3,2-b:2',3'-e][1,4]diazepin-6-one] | 82 | – | – |
| – | CCN1c2ncc(CCc3ccncc3)cc2C(=O)N(C)c2ccc(N)nc21 [Example 5, 2-Amino-5,11-dihydro-11-ethyl-8-[2-(4-pyridil)ethyl]-5-methyl-6H -dipyrido[3,2-b:2',3'-e][1,4]diazepin-6-one] | 68 | – | – |
| – | CCN1c2ncc(CCc3ccncc3)cc2C(=O)N(C)c2ccc(O)nc21 [Example 6, 5,11-Dihydro-11-ethyl-2-hydroxy-8-[2-(4-pyridil)ethyl]5-methyl-6H-dipyrido[3,2-b:2',3'-e][1,4]diazepin-6-one] | 21 | > 256000 | – |
| 0.03 | CCN1c2ncc(CCc3ccccc3)cc2C(=O)N(C)c2cccnc21 [Example 42, 5,11-Dihydro-11-ethyl-5methyl-8-(2-phenylethyl)-6H-dipyrido[3,2-b:2',3'-e][1,4]diazepin-6-one] | – | – | – |
| 0.01 | CCN1c2ncc(CCc3ccccc3)cc2C(=O)N(C)c2ccc(Cl)nc21 [Example 45, 2Chloro-5,11-dihydro-11-ethyl-5-methyl-8-(2-phenylethyl)-6H-dipyrido[3,2-b:2',3'-e][1,4]diazepin-6-one] | – | > 60000 | – |
| 0.03 | CCN1c2ncc(CCOc3cc[n+]([O-])cc3)cc2C(=O)N(C)c2ccc(Cl)nc21 [Example 96, 2-chloro-5,11-dihydro-11-ethyl-5-methyl-8-[2-(N-oxo-pyrid-4-yloxy)ethyl]-6H-dipyrido[3,2-b:2',3'-e[]1,4]diazepin-6-one] | – | > 256000 | – |
| – | CCN1c2ncc(COc3cccc(N)c3)cc2C(=O)N(C)c2ccc(Cl)nc21 [Example 99, 8-(3-aminophenyloxy)methyl-2-chloro-5,11-dihydro-11-ethyl-5-methyl-6H-dipyrido[3,2-b:2',3'-e][1,4]diazepin-6-one] | – | – | IC50 ([1]; Human immunodeficiency virus 1, IIIB, T-cell, 72 h, read-out: Syncytia Assay IC50 (μM)): 0.02 µM |
| 0.05 | CCN1c2ncc(COc3ccccc3)cc2C(=O)N(C)c2ccc(Cl)nc21 [Example 100, 2-chloro-5,11-dihydro-11-ethyl-5-methyl-8-(phenyloxy)methyl-6H-dipyrido[3,2-b:2',3'-e][1,4]diazepin-6-one] | – | > 60000 | – |
| 0.005 | CCN1c2ncc(CSc3ccccc3)cc2C(=O)N(C)c2ccc(Cl)nc21 [Example 117, 2-chloro-5,11-dihydro-11-ethyl-5-methyl-8-(phenylthio)methyl-6H-dipyrido[3,2-b:2',3'-e][1,4]diazepin-6-one] | – | 60000 | – |
| – | CCN1c2ncc(CSc3[nH]cnc4nncc3-4)cc2C(=O)N(C)c2ccc(Cl)nc21 [Example 122, 2-chloro-5,11-dihydro-11-ethyl-5-methyl-8-(1H-pyrazolo[3,4-d]pyrimidine-4-ylthio)methyl-6H-dipyrido[3,2-b:2',3'-e][1,4]diazepin-6-one] | – | 25000 | – |
| 0.006 | CCN1c2ncc(COc3ccncc3)cc2C(=O)N(C)c2ccc(Cl)nc21 [Example 124, 2-Chloro-5,11-dihydro-11-ethyl-5-methyl-8-(pyrid-4-yloxy)methyl-6H-dipyrido[3,2-b:2',3'-e][1,4]diazepin-6-one] | – | > 120000 | – |
| – | CCN1c2ncc(COc3ccncc3)cc2C(=O)N(C)c2ccc(F)nc21 [Example 125, 5,11-dihydro-11-ethyl-2-fluoro-5-methyl-8-(pyrid-4-yloxy)methyl-6H-dipyrido[3,2-b:2',3'-e][1,4]diazepin-6-one] | – | 160000 | – |
| – | CCN1c2ncc(COc3ccnc(C(F)(F)F)c3)cc2C(=O)N(C)c2ccc(Cl)nc21 [Example 126, 2-chloro-5,11-dihydro-11-ethyl-5-methyl-8-(2-trifluoromethylpyrid-4-yloxy)methyl-6H-dipyrido[3,2-b;2',3'-e][1,4]diazepin-6-one] | – | 64000 | – |
| 0.003 | CCN1c2ncc(CCOc3ccncc3)cc2C(=O)N(C)c2ccc(Cl)nc21 [Example 127, 2-chloro-5,11-dihydro-11-ethyl-5-methyl-8-[2-(pyrid-4-yloxy)ethyl]-6H-dipyrido[3,2-b:2',3'-e][1,4]diazepin-6-one] | – | 55000 | – |
| – | CCN1c2ncc(CCOc3ccncc3)cc2C(=O)N(C)c2cccnc21 [Example 128, 5,11-dihydro-11-ethyl-5-methyl-8-(pyrid-4-yloxy)ethyl-6H-dipyrido[3,2-b:2',3'-e][1,4]diazepin-6-one] | – | > 256000 | – |

| Compound | IC50 [1, 2] [µM] | inhibition at 1 µM (RT (WT)) [%] | MTT Assay CC30 (C8166-45 cell line) [nM] | also measured |
| --- | --- | --- | --- | --- |
| CCN1c2ncc(CCc3ccncc3)cc2C(=O)N(C)c2cccnc21 [Example 2, 5,11-Dihydro-11-ethyl-5-methyl-8-[2-(pyrid-4-yl)ethyl]-6H-dipyrido[3,2-b:2',3'-e][1,4]diazepin-6-one] | 0.02 | 95 | > 60000 | – |
| CCN1c2ncc(CCc3ccncc3)cc2C(=O)N(C)c2ccc(Cl)nc21 [Example 3, 2-Chloro-5,11-dihydro-11ethyl-5methyl-8-[2-(pyrid-4-yl)ethyl]-6H-dipyrido-[3,2-b:2',3'-e][1,4]diazepin-6-one] | 0.01 | 95 | 70000 | – |
